The source of these data is ChEMBL document CHEMBL3769374, “Novel N-thiazolyl piperazine-1-carboxamide CCR2 antagonists investigation of an unexpected reaction with glutathione” (Medchemcomm, 2015).

Where only a bound is given, the exact number is not on record here.

In series [1] the target is C-C chemokine receptor type 2 (Homo sapiens, UniProt P41597). Briefly: Antagonist activity at human C-C chemokine receptor type 2 expressed in THP-1 cells assessed as inhibition of CCL2-induced calcium flux preincubated for 10 mins followed by CCL2 addition by Fluo-4 dye based FLIPR assay. The class given is functional, cell-based. A general note: A change in cytosolic calcium serves as a functional read-out for many receptors and channels.
Chain of C-C chemokine receptor type 2 (Homo sapiens, UniProt P41597) (P41597 whole entry): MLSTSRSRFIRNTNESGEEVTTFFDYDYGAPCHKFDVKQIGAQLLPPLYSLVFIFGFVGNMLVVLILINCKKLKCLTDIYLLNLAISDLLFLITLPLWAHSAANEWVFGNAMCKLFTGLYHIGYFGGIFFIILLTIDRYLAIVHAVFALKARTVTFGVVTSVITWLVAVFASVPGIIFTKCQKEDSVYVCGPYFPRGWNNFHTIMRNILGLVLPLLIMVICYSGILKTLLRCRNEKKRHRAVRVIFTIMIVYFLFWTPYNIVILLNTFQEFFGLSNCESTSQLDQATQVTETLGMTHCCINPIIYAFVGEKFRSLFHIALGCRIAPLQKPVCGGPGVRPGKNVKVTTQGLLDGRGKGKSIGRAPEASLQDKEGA

Series [2] can be described thus: Glutathione reactivity at 50 uM measured over 18 hrs by LC-UV method.
Series [3] has as its target T1, C-C chemokine receptor type 2 (Rattus norvegicus, UniProt O55193).
T1 sequence (O55193 whole entry): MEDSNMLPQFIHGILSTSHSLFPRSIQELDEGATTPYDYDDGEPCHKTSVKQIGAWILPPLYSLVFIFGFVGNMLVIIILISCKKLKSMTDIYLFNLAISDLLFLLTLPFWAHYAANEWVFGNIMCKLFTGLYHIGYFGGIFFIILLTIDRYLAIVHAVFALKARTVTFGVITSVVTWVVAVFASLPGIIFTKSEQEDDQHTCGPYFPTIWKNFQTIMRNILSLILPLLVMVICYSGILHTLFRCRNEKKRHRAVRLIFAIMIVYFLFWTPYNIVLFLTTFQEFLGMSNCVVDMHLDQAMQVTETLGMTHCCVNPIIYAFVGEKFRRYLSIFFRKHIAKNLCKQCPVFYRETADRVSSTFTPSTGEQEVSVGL
Briefly: Antagonist activity at rat C-C chemokine receptor type 2 assessed as inhibition of CCL2-induced calcium flux. The class given is functional.

A short description of series [4]: Glutathione reactivity assessed as half life of compound at 50 uM measured over 18 hrs by LC-UV method. The format is physicochemical. The settings on record: glutathione solution (chemical reactivity test).

Consider `Cc1nc(NC(=O)N2CCN(C(=O)[C@H]3CN(C(C)(C)C)CCN3)CC2)sc1Cl`, for which the IC50 (commonly the concentration needed to halve the response being measured) in series [1] was 0.65 nM.

In the case of `COc1sc(NC(=O)N2CCN(C(=O)[C@H]3CN(C(C)(C)C)CCN3)CC2)nc1C`, the Drug metabolism entry in series [2] is given as “Metabolite not detected”. Also, the half-maximal inhibitory concentration (IC50) in series [1] was determined as 41 nM.

Consider `Cc1nc(NC(=O)N2CCN(C(=O)[C@H]3CN(C(C)(C)C)CCN3)CC2)sc1Br`, for which the half-inhibitory concentration (IC50) in series [1] was < 0.45 nM.

Take `CC(C)(C)N1CCN[C@@H](C(=O)N2CCN(C(=O)Nc3nc(C(F)(F)F)c(Cl)s3)CC2)C1`: in series [2], the Drug metabolism entry is “Metabolite not detected”. The IC50 in series [1] was 0.13 nM; in series [3] it was 1.3 nM.

`CCc1nc(NC(=O)N2CCN(C(=O)[C@H]3CN(C(C)C)CCN3)CC2)sc1Cl`: the IC50 in series [1] was 1.7 nM.

For `CC(C)(C)N1CCN[C@@H](C(=O)N2CCN(C(=O)Nc3nc(C4CC4)c(Cl)s3)CC2)C1`, the IC50 in series [1] is < 0.45 nM.

As to `CC(C)(C)N1CCN[C@@H](C(=O)N2CCN(C(=O)Nc3ncc(Cl)s3)CC2)C1`, in series [2], the Drug metabolism result is “Metabolite not detected”. For the same compound, in series [1], the IC50 was 7.4 nM.

As to `CC(C)(C)N1CCN[C@@H](C(=O)N2CCN(C(=O)Nc3ncc(F)s3)CC2)C1`, the Drug metabolism entry in series [2] was “Metabolite not detected”. Further, the IC50 in series [1] was determined as 9.2 nM.

On to `CC(C)N1CCN[C@@H](C(=O)N2CCN(C(=O)Nc3nc(C(C)(C)C)c(Cl)s3)CC2)C1`, for which the IC50 in series [1] amounted to 2.3 nM.

`CC(C)N1CCN[C@@H](C(=O)N2CCN(C(=O)Nc3nc(C(C)(C)C)c(F)s3)CC2)C1`: the Drug metabolism entry in series [2] was “Metabolite not detected”. Also, the concentration for half-maximal inhibition (IC50) in series [1] came to 2.7 nM.

Turning to `CC(C)(C)N1CCN[C@@H](C(=O)N2CCN(C(=O)Nc3nc(C4CC4)cs3)CC2)C1`, the Drug metabolism result in series [2] is “Metabolite not detected”. Besides, in series [1], the concentration for half-maximal inhibition (IC50) amounted to 1.1 nM.

Regarding `CC(C)c1nc(NC(=O)N2CCN(C(=O)[C@H]3CN(C(C)C)CCN3)CC2)sc1Cl`, in series [1], the IC50 was found to be 1.2 nM.

`O=[N+]([O-])c1ccc(CCl)cc1`: in series [4], the half-life – broadly, the time needed for the level to fall by half in the phase considered – at 50 µM was 3.6 h.

Consider `CC(=O)Nc1nc(C)c(Br)s1`, for which the Drug metabolism result in series [2] is “Metabolite not detected”.
